# Values quoted from earlier work, collected in patent US20050191370A1, “Vitamin/metal salt compositions for reducing hair loss and/or promoting hair regrowth” (L'OREAL, priority 2000, published 2005).
# Test system: lung cancers in smokers
structure (smiles),measurement,setting,value
CC1=C(/C=C/C(C)=C/C=C/C(C)=C/C=C/C=C(C)/C=C/C=C(C)/C=C/C2=C(C)CCCC2(C)C)C(C)(C)CCC1 [beta-carotene],decrease in the incidence of lung cancers,after 5 years of administration,No decrease
same,additional deaths,"men who received beta-carotene, population of 29,139 men who were smokers",8%
same,increase in lung cancers,"men who received beta-carotene, population of 29,139 men who were smokers, Finland",18%
